Experimental data from patent US4619925A, “3-Propenyl cephalosporin derivatives” (priority 1985, dated 1986).
Read-outs that look alike come from different tables or passages of the source.

What was measured:
[1] = tested on: S. aureus A15092; assay: MIC, agar dilution technique (Mueller-Hinton Agar); format: cell-based; details: Staphylococcus aureus, Gp-Ib, penicillin resistant, read-out: Minimum Inhibitory Concentration
Text: (§1) Each of these groups of organisms is constituted of five individual strains of microorganism. The Gp-Ia organisms are Gram-positive staphylococci which are sensitive to penicillin. The Gp-Ib organisms are Gram-positive staphylococci which are resistant to penicillin and produce penicillinase. The Gn-Ia organisms are Gram-negative bacteria which are sensitive to ampicillin and cephalothin. The Gn-Ib organisms are Gram-negative bacteria which are resistant to ampicillin and cephalothin.

[2] = tested on: E. coli A15148; assay: MIC, agar dilution technique (Mueller-Hinton Agar); format: cell-based; details: Escherichia coli, A15148, read-out: Minimum Inhibitory Concentration
Text: as §1

[3] = tested on: S. aureus No. 193; assay: MIC, agar dilution technique (Mueller-Hinton Agar); format: cell-based; details: Staphylococcus aureus, Gp-Ib, penicillin resistant, read-out: Minimum Inhibitory Concentration
Text: as §1

[4] = tested on: S. aureus Smith; assay: MIC, agar dilution technique (Mueller-Hinton Agar); format: cell-based; details: Staphylococcus aureus, Gp-Ia, penicillin sensitive, read-out: Minimum Inhibitory Concentration
Text: as §1

[5] = tested on: S. aureus A9497; assay: MIC, agar dilution technique (Mueller-Hinton Agar); format: cell-based; details: Staphylococcus aureus, Gp-Ia, penicillin sensitive, read-out: Minimum Inhibitory Concentration
Text: as §1

[6] = tested on: S. aureus BX-1633-2; assay: MIC, agar dilution technique (Mueller-Hinton Agar); format: cell-based; details: Staphylococcus aureus, BX16332, read-out: Minimum Inhibitory Concentration
Text: as §1

[7] = tested on: S. aureus A9534; assay: MIC, agar dilution technique (Mueller-Hinton Agar); format: cell-based; details: Staphylococcus aureus, Gp-Ia, penicillin sensitive, read-out: Minimum Inhibitory Concentration
Text: as §1

[8] = tested on: K. pneumoniae A20346; assay: MIC, agar dilution technique (Mueller-Hinton Agar); format: cell-based; details: Klebsiella pneumoniae, A20346, read-out: Minimum Inhibitory Concentration
Text: as §1

[9] = tested on: E. coli A20341-1; assay: MIC, agar dilution technique (Mueller-Hinton Agar); format: cell-based; details: Escherichia coli, A203411, read-out: Minimum Inhibitory Concentration
Text: as §1

[10] = tested on: S. aureus Terajima; assay: MIC, agar dilution technique (Mueller-Hinton Agar); format: cell-based; details: Staphylococcus aureus, Gp-Ia, penicillin sensitive, read-out: Minimum Inhibitory Concentration
Text: as §1

[11] = tested on: K. pneumoniae D11; assay: MIC, agar dilution technique (Mueller-Hinton Agar); format: cell-based; details: Klebsiella pneumoniae, D11, read-out: Minimum Inhibitory Concentration
Text: as §1

[12] = tested on: E coli RGN-823; assay: MIC, agar dilution technique (Mueller-Hinton Agar); format: cell-based; details: Escherichia coli, RGN823, Gn-Ib, ampicillin and cephalothin resistant, read-out: Minimum Inhibitory Concentration
Text: as §1

[13] = tested on: E. coli A9660; assay: MIC, agar dilution technique (Mueller-Hinton Agar); format: cell-based; details: Escherichia coli, A9660, read-out: Minimum Inhibitory Concentration
Text: as §1

[14] = tested on: S. aureus A9602; assay: MIC, agar dilution technique (Mueller-Hinton Agar); format: cell-based; details: Staphylococcus aureus, A9602, read-out: Minimum Inhibitory Concentration
Text: as §1

[15] = tested on: S. aureus Russell; assay: MIC, agar dilution technique (Mueller-Hinton Agar); format: cell-based; details: Staphylococcus aureus, read-out: Minimum Inhibitory Concentration
Text: as §1

[16] = tested on: E. coli Juhl; assay: MIC, agar dilution technique (Mueller-Hinton Agar); format: cell-based; details: Escherichia coli, read-out: Minimum Inhibitory Concentration
Text: as §1

[17] = Mouse urinary recovery; format: in vivo, mice; details: mouse, urine, po, 20 mg/kg; for dose excreted at 24 h: p.o.
[18] = tested on: S. pyogenes s-23; assay: In vitro activity against fastidious bacteria; format: cell-based; details: Streptococcus pyogenes, S23
Text: (§2) Table 5 contains comparative data for in vitro antibacterial activity against fastidious bacteria.

[19] = tested on: H. influenzae A22483; assay: In vitro activity against fastidious bacteria; format: cell-based; details: Haemophilus influenzae, A22483
Text: as §2

[20] = tested on: N. gonorrheae A20155; assay: In vitro activity against fastidious bacteria; format: cell-based
Text: as §2

[21] = tested on: N. meningitidis A21487; assay: In vitro activity against fastidious bacteria; format: cell-based; details: Neisseria meningitidis, A21487
Text: as §2

[22] = tested on: H. influenzae A9729; assay: In vitro activity against fastidious bacteria; format: cell-based; details: Haemophilus influenzae, A9729
Text: as §2

[23] = tested on: S. pneumoniae A20759; assay: In vitro activity against fastidious bacteria; format: cell-based; details: Streptococcus pneumoniae, A20759
Text: as §2

[24] = tested on: N. meningitidis A21495; assay: In vitro activity against fastidious bacteria; format: cell-based; details: Neisseria meningitidis, A21495
Text: as §2

[25] = tested on: N. gonorrheae A20154; assay: In vitro activity against fastidious bacteria; format: cell-based
Text: as §2

[26] = tested on: H. influenzae A21523; assay: In vitro activity against fastidious bacteria; format: cell-based; details: Haemophilus influenzae, A21523
Text: as §2

[27] = tested on: H. influenzae A20177; assay: In vitro activity against fastidious bacteria; format: cell-based; details: Haemophilus influenzae, A20177
Text: as §2

[28] = tested on: S. pyogenes A20201; assay: In vitro activity against fastidious bacteria; format: cell-based; details: Streptococcus pyogenes, A20201
Text: as §2

[29] = tested on: S. pneumoniae Type II; assay: In vitro activity against fastidious bacteria; format: cell-based; details: Streptococcus pneumoniae
Text: as §2

[30] = tested on: N. meningitidis A20048; assay: In vitro activity against fastidious bacteria; format: cell-based; details: Neisseria meningitidis, A20048
Text: as §2

[31] = tested on: S. pneumoniae A9585; assay: In vitro activity against fastidious bacteria; format: cell-based; details: Streptococcus pneumoniae, A9585
Text: as §2

[32] = tested on: S. pyogenes A15040; assay: In vitro activity against fastidious bacteria; format: cell-based; details: Streptococcus pyogenes, A15040
Text: as §2

[33] = tested on: H. influenzae A9833; assay: In vitro activity against fastidious bacteria; format: cell-based; details: Haemophilus influenzae, A9833
Text: as §2

[34] = tested on: H. influenzae A22482; assay: In vitro activity against fastidious bacteria; format: cell-based; details: Haemophilus influenzae, A22482
Text: as §2

[35] = tested on: H. influenzae A20193; assay: In vitro activity against fastidious bacteria; format: cell-based; details: Haemophilus influenzae, A20193
Text: as §2

[36] = tested on: N. gonorrheae A15112; assay: In vitro activity against fastidious bacteria; format: cell-based
Text: as §2

[37] = tested on: S. pyogenes A9604; assay: In vitro activity against fastidious bacteria; format: cell-based; details: Streptococcus pyogenes, A9604
Text: as §2

[38] = tested on: N. meningitidis A21497; assay: In vitro activity against fastidious bacteria; format: cell-based; details: Neisseria meningitidis, A21497
Text: as §2

[39] = tested on: S. pneumoniae A15069; assay: In vitro activity against fastidious bacteria; format: cell-based; details: Streptococcus pneumoniae, A15069
Text: as §2

[40] = tested on: N. gonorrheae A20143; assay: In vitro activity against fastidious bacteria; format: cell-based
Text: as §2

[41] = tested on: S. pyogenes A20065; assay: In vitro activity against fastidious bacteria; format: cell-based; details: Streptococcus pyogenes, A20065
Text: as §2

[42] = tested on: S. pyogenes Dick; assay: In vitro activity against fastidious bacteria; format: cell-based; details: Streptococcus pyogenes
Text: as §2

[43] = tested on: S. aureus Smith; assay: Protective dose for mice infected with lethal inoculum; format: in vivo; details: po, 50% survival after five days
Text: (§3) The data in Table 2 are results of protective doses (PD50) for mice infected with a lethal inoculum of bacteria. Two different bacteria were employed in the studies, one a Gram-positive organism (S. aureus Smith) and the other a Gram-negative organism (E. coli Juhl). The PD50 is that dose which, when administered to a group of injected mice, results in 50% survival after five days. Normally untreated infected mice die within three days following injection of the lethal inoculum.

[44] = tested on: E. coli Juhl; assay: as above; format: in vivo; details: 50% survival after five days
Text: as §3

N[C@@H](C(=O)N[C@@H]1C(=O)N2C(C(=O)O)=C(Cl)CS[C@H]12)c1ccccc1 [cefaclor]
6.3 µg/mL: MIC [1] | MIC [3] | MIC [6] | MIC [8] | MIC [9]
1.5%: dose excreted at 24 h ([17]; 6-24 hr, read-out: Mouse urinary recovery 6-24 hr)
0.20: PD50 (protective dose) [43]
60%: dose excreted at 2 h ([17]; 0-2 hr)
0.4 µg/mL: MIC [10]
1.1: PD50 (protective dose) ([44]; po)
0.8: PD50 (protective dose) ([44]; im)
6.7%: dose excreted at 4 h ([17]; 2-4 hr)
0.3%: dose excreted at 6 h ([17]; 4-6 hr)
0.8 µg/mL: MIC [4] | MIC [5] | MIC [7] | MIC [11] | MIC [13] | MIC [16] | MIC [19] | MIC [20] | MIC [21] | MIC [22] | MIC [24] | MIC [25] | MIC [26] | MIC [27] | MIC [29] | MIC [30] | MIC [31] | MIC [33] | MIC [34] | MIC [35] | MIC [36] | MIC [38] | MIC [40]
3.1 µg/mL: MIC [14] | MIC [15] | MIC [23] | MIC [39]
0.2 µg/mL: MIC [18] | MIC [28] | MIC [32] | MIC [37] | MIC [41] | MIC [42]
25 µg/mL: MIC [2] | MIC [12]
69%: dose excreted at 24 h ([17]; total, read-out: Mouse urinary recovery Total)
